Results: patent US7135473B2, “Cyclic diamine compound with condensed-ring groups” (Kowa Co., Ltd., priority 2001, dated 2006)

Experiments:
[1] = test system: U937 cells adhered to HUVEC stimulated by TNFα; assay: Inhibitory effect on cell adhesion, stimulation by TNFα; format: cell-based; settings: Homo sapiens, compound at 1 μM, read-out: Inhibitory activity against cell adhesion, Percent inhibition (%), Stimulation by TNFα
Protocol: (§1) This test was conducted by reference to the method of Ross et al. (J. Biol. Chem., 267, 8537–8543(1992). More specifically, after human umbilical venous endothelial cells (HUVEC) were cultured on a 48-well plate to confluent growth, IL-1β or TNFα was added thereto. After culturing for 5 hours, U937, which is a human monocytic/histocytic cell fluorescence-labeled with PKH2(product of Dainippon Pharmaceutical Co., Ltd.), was added in a proportion of 1×10^6 cells per well. After the plate was left at rest at room temperature for 1 hour, unadhered U937 was washed out and lysed in 1% Triton X-100 to measure a remaining fluorescence intensity (excitation wavelength: 480 nm; measuring wavelength: 530 nm). HUVEC and U937 were cultured in EGM-2 (product of Sanko Junyaku K. K.) and 10% FCS-containing RPMI1640, respectively. Each test agent was added to HUVEC upon the addition of IL-1β or TNFα and to U937 24 hours prior to the cell adhesion test. The inhibitory activity was calculated out according to the equation [100−(C−B)/(A−B)×100(%)], wherein A is the number of U937 cells adhered to HUVEC stimulated by IL-1β or TNFα when no test agent was added, B is the number of U937 cells adhered to HUVEC not stimulated by IL-1β or TNFα when no test agent was added, and C is the number of U937 cells adhered to HUVEC stimulated by IL-1β or TNFα when the test agent was added. As control compounds, Test Compound 1 described in Japanese Patent Application Laid-Open No. 9–143075 and dilazep described in Japanese Patent Application Laid-Open No. 11–92382 were simultaneously evaluated.

[2] = test system: U937 cells adhered to HUVEC stimulated by IL-1β; assay: Inhibitory effect on cell adhesion, stimulation by IL-1β; format: cell-based; settings: Homo sapiens, compound at 1 μM, read-out: Inhibitory activity against cell adhesion, Percent inhibition (%), Stimulation by IL-1β
Protocol: as §1

SMILES: COc1cc2sc(CN3CCCN(Cc4cc5c(OC)c(OC)c(OC)cc5s4)CC3)cc2c(OC)c1OC [Example 41, N,N′-bis[(4,5,6-trimethoxybenzothiophen-2-yl)methyl]homopiperazine]
- inhibition at 1 µM [1]: 27%
- inhibition at 1 µM [2]: 52%

SMILES: COc1cc2cc(CCN3CCCN(CCc4ccc5c(OC)c(OC)c(OC)cc5c4)CC3)ccc2c(OC)c1OC [Example 6, N,N′-bis[2-(5,6,7-trimethoxynaphthalen-2-yl)ethyl]homopiperazine]
- inhibition at 1 µM [1]: 69%
- inhibition at 1 µM [2]: 57%

SMILES: COc1cc2nc(CN3CCN(Cc4nc5cc(OC)c(OC)c(OC)c5s4)CC3)sc2c(OC)c1OC [Example 32, N,N′-bis[(5,6,7-trimethoxybenzothiazol-2-yl)methyl]piperazine]
- inhibition at 1 µM [1]: 52%
- inhibition at 1 µM [2]: 54%

SMILES: COc1cc(C(=O)OCCCN2CCCN(CCCOC(=O)c3cc(OC)c(OC)c(OC)c3)CC2)cc(OC)c1OC [Dilazep, dilazep, reference compound]
- inhibition at 1 µM [1]: 12%
- inhibition at 1 µM [2]: 0%

SMILES: COc1cc2nc(CN3CCCN(Cc4nc5cc(OC)c(OC)c(OC)c5s4)CC3)sc2c(OC)c1OC [Example 33, N,N′-bis[(5,6,7-trimethoxybenzothiazol-2-yl)methyl]homopiperazine]
- inhibition at 1 µM [1]: 79%
- inhibition at 1 µM [2]: 64%
